Reference: US9593123B2, “Triazolo[4,5-D]pyrimidine derivatives” (Hoffmann-La Roche Inc., priority 2013, dated 2017)

Experiments:
human CB2 receptor = human CB2 receptor (Homo sapiens (Human), UniProt P34972); experiment: cAMP assay, CHO cells expressing human CB2 receptors; type: cell-based; settings: functional cAMP assay, read-out: CB2 hcAMP EC50
In short: (§1)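 Compound exposure lasted 30 min at 30 °C in IBMX (1 mM)-containing Krebs Ringer bicarbonate buffer, applied to human CB1- or CB2-expressing CHO cells. Lysates were read by time-resolved FRET cAMP detection, converted via cAMP standard curve (10 μM–0.13 nM), and EC50 values calculated.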

human CB1 receptor = human CB1 receptor (Homo sapiens (Human), UniProt P21554); experiment: cAMP assay, CHO cells expressing human CB1 receptors; type: cell-based; settings: functional cAMP assay, read-out: CB1 hcAMP EC50
In short: as §1

human CB1 receptor, sequence (P21554 whole entry): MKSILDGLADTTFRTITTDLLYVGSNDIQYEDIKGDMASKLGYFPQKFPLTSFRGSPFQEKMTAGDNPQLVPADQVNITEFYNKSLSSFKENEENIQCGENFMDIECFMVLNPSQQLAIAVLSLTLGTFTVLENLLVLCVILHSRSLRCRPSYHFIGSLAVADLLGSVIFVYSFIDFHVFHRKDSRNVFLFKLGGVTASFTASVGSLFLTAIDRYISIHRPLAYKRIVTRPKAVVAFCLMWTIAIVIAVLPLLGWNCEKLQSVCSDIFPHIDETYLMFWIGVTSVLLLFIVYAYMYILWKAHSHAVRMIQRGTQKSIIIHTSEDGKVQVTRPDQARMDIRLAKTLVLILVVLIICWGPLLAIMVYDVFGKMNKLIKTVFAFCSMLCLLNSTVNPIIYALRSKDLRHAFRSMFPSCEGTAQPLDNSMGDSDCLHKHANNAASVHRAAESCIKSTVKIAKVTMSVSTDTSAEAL
human CB2 receptor, sequence (P34972 whole entry): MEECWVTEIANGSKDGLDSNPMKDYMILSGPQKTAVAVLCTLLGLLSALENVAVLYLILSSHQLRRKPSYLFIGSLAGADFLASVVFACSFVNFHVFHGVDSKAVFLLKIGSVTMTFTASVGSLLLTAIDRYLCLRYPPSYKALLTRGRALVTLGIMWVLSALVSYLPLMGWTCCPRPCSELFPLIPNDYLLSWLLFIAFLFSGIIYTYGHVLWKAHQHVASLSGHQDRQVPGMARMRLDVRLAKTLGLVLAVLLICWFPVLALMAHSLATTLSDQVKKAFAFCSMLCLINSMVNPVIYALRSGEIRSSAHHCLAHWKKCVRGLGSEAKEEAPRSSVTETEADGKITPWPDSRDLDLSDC

Structure (SMILES): C[C@H](Oc1nc(N2CCC(F)(F)C2)c2nnn(CCC(F)(F)F)c2n1)C(F)(F)F [Example 75, 7-(3,3-Difluoropyrrolidin-1-yl)-5-[(2S)-1,1,1-trifluoropropan-2-yl]oxy-3-(3,3,3-trifluoropropyl)triazolo[4,5-d]pyrimidine]
- EC50 (human CB2 receptor): 4.3 nM
- EC50 (human CB1 receptor): > 10000 nM

Structure (SMILES): C[C@H](Oc1nc(N2CCC(F)(F)C2)c2nnn(Cc3ccccc3Cl)c2n1)C(F)(F)F [Example 42, 3-[(2-Chlorophenyl)methyl]-7-(3,3-difluoropyrrolidin-1-yl)-5-[(2S)-1,1,1-trifluoropropan-2-yl]oxytriazolo[4,5-d]pyrimidine]
- EC50 (human CB2 receptor): 3.3 nM
- EC50 (human CB1 receptor): > 10000 nM

Structure (SMILES): COCC(C)Oc1nc(N2CCC(F)(F)C2)c2nnn(Cc3ccccc3Cl)c2n1 (stereo not shown) [Example 57, 3-[(2-Chlorophenyl)methyl]-7-(3,3-difluoropyrrolidin-1-yl)-5-(1-methoxypropan-2-yloxy)triazolo[4,5-d]pyrimidine]
- EC50 (human CB2 receptor): 8.8 nM
- EC50 (human CB1 receptor): > 10000 nM

Structure (SMILES): CC(C)Sc1nc(N2CCC(F)(F)C2)c2nnn(Cc3ccccc3Cl)c2n1 [Example 84, 3-[(2-Chlorophenyl)methyl]-7-(3,3-difluoropyrrolidin-1-yl)-5-propan-2-ylsulfanyltriazolo[4,5-d]pyrimidine]
- EC50 (human CB2 receptor): 2.3 nM
- EC50 (human CB1 receptor): 80 nM

Structure (SMILES): CC(C)(C)COc1nc(N2CCC(F)(F)C2)c2nnn(Cc3ccccc3Cl)c2n1 [Example 52, 3-[(2-Chlorophenyl)methyl]-7-(3,3-difluoropyrrolidin-1-yl)-5-(2,2-dimethylpropoxy) triazolo[4,5-d]pyrimidine]
- EC50 (human CB2 receptor): 0.8 nM
- EC50 (human CB1 receptor): > 10000 nM

Structure (SMILES): CC(C)(C)Sc1nc(N2CCC(F)(F)C2)c2nnn(Cc3ccccc3Cl)c2n1 [Example 85, 5-tert-Butylsulfanyl-3-[(2-chlorophenyl)methyl]-7-(3,3-difluoropyrrolidin-1-yl)triazolo[4,5-d]pyrimidine]
- EC50 (human CB2 receptor): 0.9 nM
- EC50 (human CB1 receptor): 108 nM

Structure (SMILES): CCSc1nc(N2CCC(F)(F)C2)c2nnn(Cc3ccccc3Cl)c2n1 [Example 82, 3-[(2-Chlorophenyl)methyl]-7-(3,3-difluoropyrrolidin-1-yl)-5-ethylsulfanyltriazolo [4,5-d]pyrimidine]
- EC50 (human CB2 receptor): 0.7 nM
- EC50 (human CB1 receptor): 183 nM

Structure (SMILES): FC1(F)CCN(c2nc(N3CCCC3)nc3c2nnn3Cc2ccccc2Cl)C1 [Example 10, 3-[(2-Chlorophenyl)methyl]-7-(3,3-difluoropyrrolidin-1-yl)-5-pyrrolidin-1-yltriazolo[4,5-d]pyrimidine]
- EC50 (human CB2 receptor): 2.9 nM
- EC50 (human CB1 receptor): 217 nM

Structure (SMILES): Cc1nonc1Cn1nnc2c(N3CCC(F)(F)C3)nc(OCC(C)(C)C)nc21 [Example 67, 3-[[7-(3,3-Difluoropyrrolidin-1-yl)-5-(2,2-dimethylpropoxy)triazolo[4,5-d]pyrimidin-3-yl]methyl]-4-methyl-1,2,5-oxadiazole]
- EC50 (human CB2 receptor): 1.7 nM
- EC50 (human CB1 receptor): > 10000 nM

Structure (SMILES): C[C@H](Oc1nc(N2CCC(F)(F)C2)c2nnn(Cc3ccccc3S(C)(=O)=O)c2n1)C(F)(F)F [Example 69, 7-(3,3-Difluoropyrrolidin-1-yl)-3-[(2-methylsulfonylphenyl)methyl]-5-[(2S)-1,1,1-trifluoropropan-2-yl]oxytriazolo[4,5-d]pyrimidine]
- EC50 (human CB2 receptor): 3.2 nM
- EC50 (human CB1 receptor): > 10000 nM

Structure (SMILES): FC(F)(F)COc1nc(N2CCC(F)(F)C2)c2nnn(Cc3ccccc3Cl)c2n1 [Example 40, 3-[(2-Chlorophenyl)methyl]-7-(3,3-difluoropyrrolidin-1-yl)-5-(2,2,2-trifluoroethoxy) triazolo[4,5-d]pyrimidine]
- EC50 (human CB2 receptor): 6.1 nM
- EC50 (human CB1 receptor): > 10000 nM

Structure (SMILES): CC(C)(C)COc1nc(N2CCC(F)(F)C2)c2nnn(Cc3ccccc3S(C)(=O)=O)c2n1 [Example 66, 7-(3,3-Difluoropyrrolidin-1-yl)-5-(2,2-dimethylpropoxy)-3-[(2-methylsulfonylphenyl)methyl]triazolo[4,5-d]pyrimidine]
- EC50 (human CB2 receptor): 3.9 nM
- EC50 (human CB1 receptor): > 10000 nM

Structure (SMILES): CCS(=O)(=O)c1nc(N2CCC(F)(F)C2)c2nnn(Cc3ccccc3Cl)c2n1 [Example 86, 3-[(2-Chlorophenyl)methyl]-7-(3,3-difluoropyrrolidin-1-yl)-5-ethylsulfonyltriazolo [4,5-d]pyrimidine]
- EC50 (human CB2 receptor): 86.6 nM
- EC50 (human CB1 receptor): > 10000 nM

Structure (SMILES): CC(C)(C)Nc1nc(N2CCC(F)(F)C2)c2nnn(Cc3ccccc3S(C)(=O)=O)c2n1 [Example 23, N-tert-Butyl-7-(3,3-difluoropyrrolidin-1-yl)-3-[(2-methylsulfonylphenyl)methyl]triazolo[4,5-d]pyrimidin-5-amine]
- EC50 (human CB2 receptor): 1.1 nM
- EC50 (human CB1 receptor): 487 nM
